Test system: T-47D spheroids with HUVEC/MSC, viability
Test: Anticancer human tumor T-47D cell line growth inhibition [PI3K];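 also: spheroids exposed to agents for seven days before reading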;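 as to viability, T/C: percent of DMSO vehicle control luminescence so 100% = untreated growth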
Conditions: for IC50: curve of first compound; for viability, T/C: stronger effect = lower value
In short: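 Tumor cells were combined with HUVEC and MSCs into spheroids, then dosed with PI3K-inhibitor combinations over half-log ranges capped near clinical Cmax or 10 microM.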

[1] = second compound 0.0316 µM, first compound 0.0316 µM
[2] = second compound 0.0316 µM, first compound 0.1 µM
[3] = second compound 0.0316 µM, first compound 0.316 µM
[4] = second compound 0.0316 µM, first compound 1 µM
[5] = second compound 0.0316 µM, first compound 3.16 µM
[6] = second compound 0.0316 µM, first compound 10 µM
[7] = second compound 0.1 µM, first compound 0.0316 µM
[8] = second compound 0.1 µM, first compound 0.1 µM
[9] = second compound 0.1 µM, first compound 0.316 µM
[10] = second compound 0.1 µM, first compound 1 µM
[11] = second compound 0.1 µM, first compound 3.16 µM
[12] = second compound 0.1 µM, first compound 10 µM
[13] = second compound 0.316 µM, first compound 0.0316 µM
[14] = second compound 0.316 µM, first compound 0.1 µM
[15] = second compound 0.316 µM, first compound 0.316 µM
[16] = second compound 0.316 µM, first compound 1 µM
[17] = second compound 0.316 µM, first compound 3.16 µM
[18] = second compound 0.316 µM, first compound 10 µM
[19] = second compound 1 µM, first compound 0.0316 µM
[20] = second compound 1 µM, first compound 0.1 µM
[21] = second compound 1 µM, first compound 0.316 µM
[22] = second compound 1 µM, first compound 1 µM
[23] = second compound 1 µM, first compound 3.16 µM
[24] = second compound 1 µM, first compound 10 µM
[25] = second compound 3.16 µM, first compound 0.0316 µM
[26] = second compound 3.16 µM, first compound 0.1 µM
[27] = second compound 3.16 µM, first compound 0.316 µM
[28] = second compound 3.16 µM, first compound 1 µM
[29] = second compound 3.16 µM, first compound 3.16 µM
[30] = second compound 3.16 µM, first compound 10 µM
[31] = second compound 10 µM, first compound 0.0316 µM
[32] = second compound 10 µM, first compound 0.1 µM
[33] = second compound 10 µM, first compound 0.316 µM
[34] = second compound 10 µM, first compound 1 µM
[35] = second compound 10 µM, first compound 3.16 µM
[36] = second compound 10 µM, first compound 10 µM

## CNC(=O)c1ccc(N2C(=S)N(c3ccc(C#N)c(C(F)(F)F)c3)C(=O)C2(C)C)cc1F + CC(Nc1ccc2c(c1)OCCn1cc(N3C(=O)OCC3C(F)F)nc1-2)C(N)=O
Second compound 0.00316 µM
  IC50: > 10 µM
Second compound 0.01 µM
  IC50: > 10 µM
Second compound 0.0316 µM
  IC50: > 10 µM
Second compound 0.1 µM
  IC50: > 10 µM
Second compound 0.316 µM
  IC50: > 10 µM
Second compound 1 µM
  IC50: > 10 µM
Second compound 0.00316 µM, first compound 0.0316 µM
  viability, T/C: 120%
Second compound 0.00316 µM, first compound 0.1 µM
  viability, T/C: 98.2%
Second compound 0.00316 µM, first compound 0.316 µM
  viability, T/C: 104%
Second compound 0.00316 µM, first compound 1 µM
  viability, T/C: 81.5%
Second compound 0.00316 µM, first compound 3.16 µM
  viability, T/C: 104%
Second compound 0.00316 µM, first compound 10 µM
  viability, T/C: 88.3%
Second compound 0.01 µM, first compound 0.0316 µM
  viability, T/C: 105%
Second compound 0.01 µM, first compound 0.1 µM
  viability, T/C: 91.5%
Second compound 0.01 µM, first compound 0.316 µM
  viability, T/C: 88.2%
Second compound 0.01 µM, first compound 1 µM
  viability, T/C: 82.3%
Second compound 0.01 µM, first compound 3.16 µM
  viability, T/C: 91.2%
Second compound 0.01 µM, first compound 10 µM
  viability, T/C: 95.5%
[1]
  viability, T/C: 103%
[2]
  viability, T/C: 95%
[3]
  viability, T/C: 87.1%
[4]
  viability, T/C: 77.2%
[5]
  viability, T/C: 91.2%
[6]
  viability, T/C: 90.9%
[7]
  viability, T/C: 94.7%
[8]
  viability, T/C: 82.2%
[9]
  viability, T/C: 99.7%
[10]
  viability, T/C: 86.7%
[11]
  viability, T/C: 90.2%
[12]
  viability, T/C: 72.5%
[13]
  viability, T/C: 71.9%
[14]
  viability, T/C: 79%
[15]
  viability, T/C: 75.2%
[16]
  viability, T/C: 71%
[17]
  viability, T/C: 64.3%
[18]
  viability, T/C: 60.6%
[19]
  viability, T/C: 61%
[20]
  viability, T/C: 68%
[21]
  viability, T/C: 58.8%
[22]
  viability, T/C: 60.4%
[23]
  viability, T/C: 56.2%
[24]
  viability, T/C: 48.8%

## CCCS(=O)(=O)Nc1ccc(F)c(C(=O)c2c[nH]c3ncc(-c4ccc(Cl)cc4)cc23)c1F + Cc1nc(NC(=O)N2CCCC2C(N)=O)sc1-c1ccnc(C(C)(C)C(F)(F)F)c1
Second compound 0.0316 µM
  IC50: 9.2 µM
Second compound 0.1 µM
  IC50: 8.1 µM
Second compound 0.316 µM
  IC50: 7.63 µM
Second compound 1 µM
  IC50: 7.35 µM
Second compound 3.16 µM
  IC50: 4.41 µM
Second compound 10 µM
  IC50: < 0.0316 µM
[1]
  viability, T/C: 95.4%
[2]
  viability, T/C: 92.7%
[3]
  viability, T/C: 100%
[4]
  viability, T/C: 94.4%
[5]
  viability, T/C: 108%
[6]
  viability, T/C: 46.1%
[7]
  viability, T/C: 93.1%
[8]
  viability, T/C: 92.5%
[9]
  viability, T/C: 107%
[10]
  viability, T/C: 91.4%
[11]
  viability, T/C: 85.9%
[12]
  viability, T/C: 41.7%
[13]
  viability, T/C: 99.8%
[14]
  viability, T/C: 93%
[15]
  viability, T/C: 89.3%
[16]
  viability, T/C: 90.5%
[17]
  viability, T/C: 76%
[18]
  viability, T/C: 41.7%
[19]
  viability, T/C: 83.5%
[20]
  viability, T/C: 82.3%
[21]
  viability, T/C: 81.5%
[22]
  viability, T/C: 78.3%
[23]
  viability, T/C: 78.4%
[24]
  viability, T/C: 39.7%
[25]
  viability, T/C: 75.3%
[26]
  viability, T/C: 76.9%
[27]
  viability, T/C: 79%
[28]
  viability, T/C: 81.5%
[29]
  viability, T/C: 56%
[30]
  viability, T/C: 35%
[31]
  viability, T/C: 35.3%
[32]
  viability, T/C: 40.7%
[33]
  viability, T/C: 41.2%
[34]
  viability, T/C: 37.8%
[35]
  viability, T/C: 38.3%
[36]
  viability, T/C: 32.8%

## CC(C)n1nc(-c2ccc3oc(N)nc3c2)c2c(N)ncnc21 + CC(Nc1ncnc2nc[nH]c12)c1cc2cccc(Cl)c2c(=O)n1-c1ccccc1
Second compound 0.0316 µM
  IC50: 0.0705 µM
Second compound 0.1 µM
  IC50: 0.0835 µM
Second compound 0.316 µM
  IC50: 0.0618 µM
Second compound 1 µM
  IC50: 0.0722 µM
Second compound 3.16 µM
  IC50: 0.0643 µM
Second compound 10 µM
  IC50: 0.0509 µM
Second compound 0.0316 µM, first compound 0.000316 µM
  viability, T/C: 116%
Second compound 0.0316 µM, first compound 0.001 µM
  viability, T/C: 103%
Second compound 0.0316 µM, first compound 0.00316 µM
  viability, T/C: 98.8%
Second compound 0.0316 µM, first compound 0.01 µM
  viability, T/C: 97.3%
[1]
  viability, T/C: 90%
[2]
  viability, T/C: 33.1%
Second compound 0.1 µM, first compound 0.000316 µM
  viability, T/C: 92.2%
Second compound 0.1 µM, first compound 0.001 µM
  viability, T/C: 76.5%
Second compound 0.1 µM, first compound 0.00316 µM
  viability, T/C: 87.8%
Second compound 0.1 µM, first compound 0.01 µM
  viability, T/C: 92.8%
[7]
  viability, T/C: 79.2%
[8]
  viability, T/C: 44.6%
Second compound 0.316 µM, first compound 0.000316 µM
  viability, T/C: 93.5%
Second compound 0.316 µM, first compound 0.001 µM
  viability, T/C: 107%
Second compound 0.316 µM, first compound 0.00316 µM
  viability, T/C: 91.3%
Second compound 0.316 µM, first compound 0.01 µM
  viability, T/C: 104%
[13]
  viability, T/C: 67.6%
[14]
  viability, T/C: 37.3%
Second compound 1 µM, first compound 0.000316 µM
  viability, T/C: 86.4%
Second compound 1 µM, first compound 0.001 µM
  viability, T/C: 107%
Second compound 1 µM, first compound 0.00316 µM
  viability, T/C: 78.4%
Second compound 1 µM, first compound 0.01 µM
  viability, T/C: 90%
[19]
  viability, T/C: 83.7%
[20]
  viability, T/C: 36.6%
Second compound 3.16 µM, first compound 0.000316 µM
  viability, T/C: 99.4%
Second compound 3.16 µM, first compound 0.001 µM
  viability, T/C: 94.2%
Second compound 3.16 µM, first compound 0.00316 µM
  viability, T/C: 86.9%
Second compound 3.16 µM, first compound 0.01 µM
  viability, T/C: 76.2%
[25]
  viability, T/C: 82.2%
[26]
  viability, T/C: 33.1%
Second compound 10 µM, first compound 0.000316 µM
  viability, T/C: 95%
Second compound 10 µM, first compound 0.001 µM
  viability, T/C: 75.1%
Second compound 10 µM, first compound 0.00316 µM
  viability, T/C: 80.5%
Second compound 10 µM, first compound 0.01 µM
  viability, T/C: 75.6%
[31]
  viability, T/C: 61.4%
[32]
  viability, T/C: 35.1%

## Cn1nccc1Nc1nccc(-c2ccn(C(CO)c3ccc(Cl)c(F)c3)c(=O)c2)n1 (stereo not drawn) + CC(Nc1ncnc2nc[nH]c12)c1cc2cccc(Cl)c2c(=O)n1-c1ccccc1
Second compound 0.0316 µM
  IC50: > 10 µM
Second compound 0.1 µM
  IC50: > 10 µM
Second compound 0.316 µM
  IC50: > 10 µM
Second compound 1 µM
  IC50: > 10 µM
Second compound 3.16 µM
  IC50: > 10 µM
Second compound 10 µM
  IC50: > 10 µM
[1]
  viability, T/C: 114%
[2]
  viability, T/C: 91.8%
[3]
  viability, T/C: 116%
[4]
  viability, T/C: 103%
[5]
  viability, T/C: 115%
[6]
  viability, T/C: 90.4%
[7]
  viability, T/C: 109%
[8]
  viability, T/C: 99.9%
[9]
  viability, T/C: 99.2%
[10]
  viability, T/C: 85.5%
[11]
  viability, T/C: 104%
[12]
  viability, T/C: 81%
[13]
  viability, T/C: 80.2%
[14]
  viability, T/C: 96.7%
[15]
  viability, T/C: 87.5%
[16]
  viability, T/C: 88.8%
[17]
  viability, T/C: 118%
[18]
  viability, T/C: 83.5%
[19]
  viability, T/C: 88.4%
[20]
  viability, T/C: 108%
[21]
  viability, T/C: 98.4%
[22]
  viability, T/C: 113%
[23]
  viability, T/C: 111%
[24]
  viability, T/C: 84.2%
[25]
  viability, T/C: 101%
[26]
  viability, T/C: 97.6%
[27]
  viability, T/C: 97.6%
[28]
  viability, T/C: 85.5%
[29]
  viability, T/C: 108%
[30]
  viability, T/C: 96.3%
[31]
  viability, T/C: 97.1%
[32]
  viability, T/C: 84.1%
[33]
  viability, T/C: 95.8%
[34]
  viability, T/C: 94%
[35]
  viability, T/C: 125%
[36]
  viability, T/C: 73.9%
